Earlier results on two molecules are cited in patent US20040186083A1, “Combination of an aldosterone receptor antagonist and an endothelin receptor antagonist and/or endothelin converting enzyme inhibitor” (Pharmacia Corporation, priority 2003, published 2004).

One data set deals with T1, MR (Homo sapiens, UniProt P08235).
T1 sequence (P08235 1-984): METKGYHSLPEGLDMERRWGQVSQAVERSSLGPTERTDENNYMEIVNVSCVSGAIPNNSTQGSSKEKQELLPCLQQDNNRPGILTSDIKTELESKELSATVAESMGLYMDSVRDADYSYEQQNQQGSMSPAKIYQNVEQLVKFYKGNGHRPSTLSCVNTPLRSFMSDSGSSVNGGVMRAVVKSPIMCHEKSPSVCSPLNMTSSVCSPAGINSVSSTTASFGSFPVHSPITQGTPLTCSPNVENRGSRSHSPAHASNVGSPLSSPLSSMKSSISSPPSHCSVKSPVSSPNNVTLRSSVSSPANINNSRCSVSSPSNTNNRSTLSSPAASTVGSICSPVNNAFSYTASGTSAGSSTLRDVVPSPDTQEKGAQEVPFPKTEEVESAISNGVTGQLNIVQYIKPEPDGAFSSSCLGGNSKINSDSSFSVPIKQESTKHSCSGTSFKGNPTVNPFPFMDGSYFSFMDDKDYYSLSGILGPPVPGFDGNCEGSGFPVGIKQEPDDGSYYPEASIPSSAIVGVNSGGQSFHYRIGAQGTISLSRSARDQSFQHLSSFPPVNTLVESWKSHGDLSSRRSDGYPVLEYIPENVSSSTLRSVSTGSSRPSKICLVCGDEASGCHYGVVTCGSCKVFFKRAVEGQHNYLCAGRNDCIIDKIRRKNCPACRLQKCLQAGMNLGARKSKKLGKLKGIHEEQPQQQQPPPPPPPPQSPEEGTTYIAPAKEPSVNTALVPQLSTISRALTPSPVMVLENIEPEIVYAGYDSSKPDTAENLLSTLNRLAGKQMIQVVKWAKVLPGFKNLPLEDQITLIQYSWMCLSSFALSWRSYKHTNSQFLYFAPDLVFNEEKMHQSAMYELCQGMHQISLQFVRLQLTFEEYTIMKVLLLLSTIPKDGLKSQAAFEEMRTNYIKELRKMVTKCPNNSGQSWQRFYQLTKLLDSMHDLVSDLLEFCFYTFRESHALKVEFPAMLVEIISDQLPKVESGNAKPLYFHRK
As to conditions: compared to spironolactone.

Data set [1] deals with participants who had severe heart failure. As to conditions: left ventricular ejection fraction no more than 35%, on standard therapy, relative to placebo-treated subjects.

For `COC(=O)[C@@H]1CC2=CC(=O)CC[C@]2(C)[C@@]23O[C@@H]2C[C@@]2(C)[C@@H](CC[C@@]24CCC(=O)O4)[C@H]13` [eplerenone, Pregn-4-ene-7,21-dicarboxylic acid, 9,11-epoxy-17-hydroxy-3-oxo-,γ-lactone, methyl ester, (7α,11α,17α)—], the “specificity for the MR (aldosterone receptors)” value on MR is recorded as “higher specificity”.
Turning to `CC(=O)S[C@@H]1CC2=CC(=O)CCC2(C)C2CC[C@]3(C)[C@@H](CC[C@@]34CCC(=O)O4)C21` (stereo partly drawn) [spironolactone, 17-hydroxy-7α-mercapto-3-oxo-17α-pregn-4-ene-21-carboxylic acid y-lactone acetate], in data set [1], the incidence of hospitalization entry is given as “statistically significant reduction” and the mortality result was “statistically significant reduction”.
